Experiment [1] can be described thus: Selectivity ratio of IC50 for HEK293T cells to IC50 for human SW620 cells. In kind it is functional.
The subject of experiment [2] is SW-620. As to the kind of experiment: Antitumor activity against human SW620 cells xenografted in BALB/c nude mouse at 2 mg/kg, ip qd for 16 days relative to control. The settings on record: SW-620, 384 h, time 16 day, read-out: TGI. In kind it is functional. Background: A xenograft is tissue or cells of one species grown in another, often human tumour cells in immunodeficient mice.

A short description of experiment [3]: Selectivity ratio of IC50 for human LX2 cells to IC50 for human HCT-116 cells. The experiment is classed as functional.
Experiment [4] relates to SW-620. As to the kind of experiment: Induction of mitochondrial membrane potential depolarization in human SW620 cells assessed as change in morphological characteristics at 0.5 to 2 uM incubated for 48 hrs by bright-field microscopy. The experiment is classed as functional, cell-based. The settings on record: dose 0.5-2 µM.
Another experiment has as its target T1, Peroxiredoxin-1 (Homo sapiens, UniProt Q06830).
T1 sequence (Q06830 whole entry): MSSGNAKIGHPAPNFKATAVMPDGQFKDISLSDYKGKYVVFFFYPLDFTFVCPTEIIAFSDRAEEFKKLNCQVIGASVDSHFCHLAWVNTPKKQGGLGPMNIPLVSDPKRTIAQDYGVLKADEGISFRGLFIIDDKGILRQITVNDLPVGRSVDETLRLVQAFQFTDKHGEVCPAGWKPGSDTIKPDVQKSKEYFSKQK
As to the kind of experiment: Binding affinity to CM5 sensor chip-immobilized recombinant PRDX1 (unknown origin) assessed as dissociation constant by SPR analysis. (SPR reads the build-up and loss of mass on a sensor chip optically.)

In experiment [5] the test system is SW-620. As to the kind of experiment: cells. The settings on record: Homo sapiens, SW-620, 48 h, read-out: Activity.
Description: Induction of apoptosis in human SW620 cells assessed as viable cells at 0.5 uM incubated for 48 hrs by Annexin V-FITC/PI staining based flow cytometry (Rvb = 90.7 %)

Molecules are shown by their SMILES. Calls of active or inactive are those of the source. No cut-off for these calls is given here.

As a reminder, the Kd is the constant that tells how readily two partners part at equilibrium. Take `COC(=O)C1(NC(=O)N[C@]2(C)CC[C@]3(C)CC[C@]4(C)C5=CC=C6C(=CC(=O)C(O)=C6C)[C@]5(C)CC[C@@]4(C)[C@@H]3C2)CCC1`: the Selectivity ratio in experiment [1] and in experiment [3] was 2 in each case. Besides, the inhibition in vivo at 2 mg/kg in the experiment on SW-620 [2] turned out to be 45.4%. Moreover, in the experiment with SW-620 [4], the result was Active. For the same compound, the Kd at Peroxiredoxin-1 worked out at 370 nM. Moreover, the viability at 0.5 µM with SW-620 [5] was 88.5%.

Source of the values: ChEMBL document CHEMBL5543168, “Discovery of Urea Derivatives of Celastrol as Selective Peroxiredoxin 1 Inhibitors against Colorectal Cancer Cells” (J Med Chem, 2024).
